Measured values from patent US10077464B2, “Micro-organism detection medium comprising at least one alkyl(thio)glycoside” (Biomérieux, priority 2012, dated 2018).

Assays:
[1] = test system: Microorganisms of the genus Salmonella; experiment: Detection of salmonellae, all strains of Example 1; format: cell-based; conditions: alkylglycoside in place of Tween 20, Example 1
Experimental: A stock solution of the enzyme substrate 5-bromo-6-chloro-3-indoxyl caprylate (magenta-C8) is made in a DMSO-type solvent. A volume of this stock solution which makes it possible to obtain a final substrate concentration of 360 mg/L is then added into flasks respectively containing Tween 20 (final concentration 6 g/L), n-octyl-β-D-glucopyranoside (OG) to final concentrations of 0.7, 2 and 6 g/L, and n-dodecyl-β-D-maltoside (DM) to the same concentrations. The different solutions are agitated and the volumes are introduced into supercooled agar media (chromID® Salmonella media).
Microorganisms of the genus Salmonella from the Applicant's collection were seeded on each of the aforementioned media in accordance with the three-dial technique from bacterial suspensions calibrated to 0.5 McF. The strains were selected for their low to average expression of esterase activity, giving low to average violet coloration intensities on the chromID® Salmonella medium marketed by bioMérieux (under the references 43621 and 43629).
The dishes were incubated for 24 h at 37° C. Then the colonies which formed were examined visually after 24 h of incubation. The coloration intensities were recorded.

[2] = test system: P. aeruginosa and A. baumannii; experiment: Detection of P. aeruginosa and A. baumannii, all strains of Example 2; format: cell-based
Experimental: Two stock solutions at 25 g/L of ALDOL™ 470-nonanoate (ALDOL 470-C9, developed by Biosynth AG, Rietlisstrasse 4,9422 Staad, Switzerland) and of ALDOL™ 495-nonanoate (ALDOL 495-C9, also developed by Biosynth AG, Rietlisstrasse 4,9422 Staad, Switzerland) are made in a DMSO-type organic solvent. Then a volume corresponding to a final concentration of enzyme substrates of 200 mg/L is added into flasks containing respectively: Tween 20 (final concentration in the medium of 6 g/L), and DM (final concentrations of 0.7, 2 and 6 g/L). The different flasks are vigorously agitated, then all of the contents are added into the supercooled agar media: TSA (trypticase soy agar) base.
Bacteria from the Applicant's collection were seeded on each of the aforementioned media in accordance with the three-dial technique from bacterial suspensions calibrated to 0.5 McF. The dishes were incubated for 24 h at 37° C. and the colonies formed were analysed visually. Thus, the colorations and the coloration intensities were recorded.

| Compound | Esterase activity detection sensitivity in Salmonella [1] | Detection of the strains tested ([2]; replacement of the Tween 20 at 6 g/L by DM at the same concentration, whatever the enzyme substrate) | Detection of the esterase activity of the microorganisms ([2]; substitution of Tween 20 by DM, Example 2) |
| --- | --- | --- | --- |
| CCCCCCCCCCCCO[C@@H]1O[C@H](CO)[C@@H](O[C@H]2O[C@H](CO)[C@@H](O)[C@H](O)[C@H]2O)[C@H](O)[C@H]1O [DM, n-dodecyl-β-D-maltoside] | improve the esterase activity detection sensitivity in Salmonella | detect all of the strains tested | improves the detection of the esterase activity of the microorganisms |
| CCCCCCCCO[C@@H]1O[C@H](CO)[C@@H](O)[C@H](O)[C@H]1O [OG, n-octyl-β-D-glucopyranoside] | improve the esterase activity detection sensitivity in Salmonella |  |  |
